Values quoted from earlier work as cited in paper PMC7395068, “The evolution of strategies to minimise the risk of human drug-induced liver injury (DILI) in drug discovery and development” (Archives of Toxicology, 2020).
Like-named read-outs stand apart in the source and are kept apart here.

What was measured:
[1] = cited from earlier work
[2] = cited from earlier work; remark: listed apart in the source
[3] = tested on: primary human hepatocytes, NIH3T3 fibroblasts, BSEP, CYP3A4; conditions: cited from earlier work
[4] = In vitro Assay, ref Schadt 2015

Molecule | DILI +VE (5-8), DILI -VE (-4) ([1]; ref Chen 2016) | DILI severity category ([1]; ref Chen 2016) | In vivo DILI ([2]; […]) | DILI +VE (5-8), DILI -VE (-4) ([1]; in vivo) | DILI severity category ([1]; in vivo) | In vivo DILI ([2]; in vivo) | further results
CN1CC[C@]23c4c5ccc(O)c4O[C@H]2C(=O)CC[C@@]3(O)[C@H]1C5 [oxymorphone] | -VE | vNo-DILI-Concern | -VE | – | – | – | –
CC(=O)O[C@H]1C(=O)[C@@]2(C)[C@H]([C@H](OC(=O)c3ccccc3)[C@]3(O)C[C@H](OC(=O)[C@H](O)[C@@H](NC(=O)c4ccccc4)c4ccccc4)C(C)=C1C3(C)C)[C@]1(OC(C)=O)CO[C@@H]1C[C@@H]2O [paclitaxel] | +VE | vLess-DILI-Concern | – | – | – | – | In vivo DILI ([2]; ref O'Brien 2006): +VE; In vivo DILI ([2]; ref Persson 2013): +VE
NC1=NC(=O)C(c2ccccc2)O1 (stereo not drawn) [pemoline] | – | – | – | +VE | vMost-DILI-Concern | +VE | –
C[C@H]1[C@H](c2ccccc2)OCCN1C [phendimetrazine] | -VE | vNo-DILI-Concern | -VE | – | – | – | –
CC(C)(N)Cc1ccccc1 [phentermine] | +VE | vLess-DILI-Concern | -VE | – | – | – | –
CCN(CC)CCNC(=O)c1ccc(N)cc1 [procainamide] | – | – | – | +VE | vLess-DILI-Concern | +VE | –
CNNCc1ccc(C(=O)NC(C)C)cc1 [procarbazine] | – | – | – | +VE | vLess-DILI-Concern | +VE | –
O=P(O)(O)C(O)(Cc1cccnc1)P(=O)(O)O [risedronate] | -VE | Ambiguous DILI-concern | -VE | – | – | – | –
C#CCN(C)[C@H](C)Cc1ccccc1 [selegiline] | – | – | – | -VE | vNo-DILI-Concern | -VE | –
CCOC(=O)COC1CCN(C(=O)[C@H](C)NC(=O)c2ccc(C(=N)NO)cc2)CC1 [sibrafiban] | – | – | – | – | – | – | In vivo DILI ([2]; ref Schadt 2015): -VE; Cellular toxicity (3T3 cells) [3, 4]: -VE; Combined Assay [3, 4]: -VE; GSH adduct HML [3, 4]: -VE; Hepatocyte cellular toxicity [3, 4]: -VE; MitoTox 3T3 [3, 4]: -VE; TDI CYP3A4 [3, 4]: -VE; hBSEP inhibition [3, 4]: -VE
CN1C(C(=O)Nc2nccs2)=C(O)c2ccccc2S1(=O)=O [sudoxicam] | – | – | – | – | – | – | Cellular toxicity (3T3 cells) [3]: -VE; Combined Assay [3]: -VE; GSH adduct HML [3]: -VE; Hepatocyte cellular toxicity [3]: -VE; MitoTox 3T3 [3]: -VE; TDI CYP3A4 [3]: -VE; hBSEP inhibition [3]: -VE
COc1cc2nc(N3CCN(C(=O)C4CCCO4)CC3)nc(N)c2cc1OC (stereo not drawn) [terazosin] | -VE | vNo-DILI-Concern | -VE | – | – | – | In vivo DILI ([2]; ref Aleo 2019): -VE
C[C@]12CC[C@H]3[C@@H](CCC4=CC(=O)CC[C@@]43C)[C@@H]1CC[C@@H]2O [testosterone] | – | – | – | +VE | vMost-DILI-Concern | -VE | –
Cc1cccc(Nc2ccncc2S(=O)(=O)NC(=O)NC(C)C)c1 [torasemide] | -VE | Ambiguous DILI-concern | -VE | – | – | – | –
COc1cc(Cc2cnc(N)nc2N)cc(OC)c1OC [trimethoprim] | +VE | vLess-DILI-Concern | -VE | – | – | – | In vivo DILI ([2]; ref Garside 2014): +VE
capreomycin | – | – | – | -VE | Ambiguous DILI-concern | -VE | –
